# Measurements from ChEMBL document CHEMBL5150000, “Insights on Dengue and Zika NS5 RNA-dependent RNA polymerase (RdRp) inhibitors” (Eur J Med Chem, 2021).
# Experiments:
# [1] = molecular target: NS5 (Zika virus, UniProt A0A143MHK7); assay: Inhibition of Zika virus RNA-dependent RNA polymerase
# [2] = test system: Zika virus; assay: Antiviral activity against Zika virus; format: functional, organism-based
# [3] = test system: Dengue virus; assay: Antiviral activity against DENV; format: functional, organism-based
# [4] = test system: dengue virus type 3; assay: Antiviral activity against DENV-3 infected hamster BHK-21 cells assessed as reduction in viral replication incubated for 4 hrs; format: functional, organism-based
# [5] = test system: dengue virus type 1; assay: Antiviral activity against DENV-1 infected hamster BHK-21 cells assessed as reduction in viral replication incubated for 4 hrs; format: functional, organism-based
# [6] = test system: dengue virus type 2; assay: Antiviral activity against DENV-2 infected hamster BHK-21 cells assessed as reduction in viral replication incubated for 4 hrs; format: functional, organism-based
# [7] = test system: dengue virus type 4; assay: Antiviral activity against DENV-4 infected hamster BHK-21 cells assessed as reduction in viral replication incubated for 4 hrs; format: functional, organism-based
# [8] = test system: dengue virus type 2; assay: Antiviral activity against DENV-2 incubated for 72 hrs by MTT assay; format: functional, organism-based
# [9] = Inhibition of Dengue virus RNA N7 methyltransferase
# [10] = Inhibition of Zika virus RNA N7 methyltransferase
# [11] = test system: Dengue virus; assay: Antiviral activity DENV infected in African green monkey Vero 76 cells assessed as virus-induced cytopathic effect; format: functional, organism-based
# [12] = test system: dengue virus type 1; assay: Antiviral activity against DENV-1 NS5 infected in African green monkey Vero cells; format: functional, organism-based
# [13] = test system: dengue virus type 3; assay: Antiviral activity against DENV-3 NS5 infected in African green monkey Vero cells; format: functional, organism-based
# [14] = test system: dengue virus type 2; assay: Antiviral activity against DENV-2 NS5 infected in African green monkey Vero cells; format: functional, organism-based
# [15] = Inhibition of DENV-3 full length NS5/RNA-dependent RNA polymerase; set-up: species or system dengue virus type 3
# [16] = test system: THP-1; assay: Cytotoxicity against human THP-1 cells
# [17] = test system: HepG2; assay: Cytotoxicity against human HepG2 cells
# [18] = test system: dengue virus type 2; assay: Antiviral activity against DENV-2 RNA-dependent RNA polymerase; format: functional, organism-based
# [19] = test system: dengue virus type 2; assay: Antiviral activity against DENV-2; format: functional, organism-based
# [20] = Binding affinity to DENV-2 RNA-dependent RNA polymerase assessed as dissociation constant using GTP as substrate; set-up: species or system dengue virus type 2
# [21] = test system: dengue virus type 2; assay: Antiviral activity against DENV-2 RNA-dependent RNA polymerase infected in African green monkey Vero cells assessed as reduction in viral replication incubated for 2 days by qRT-PCR analysis; format: functional, organism-based; conditions: 48 h
# [22] = test system: dengue virus type 1; assay: Antiviral activity against DENV-1 RNA-dependent RNA polymerase infected in African green monkey Vero cells assessed as reduction in viral replication incubated for 2 days by qRT-PCR analysis; format: functional, organism-based; conditions: 48 h
# [23] = Toxicity in rat assessed as animal survival at 15 to 30 mg/kg, iv measured for 7 days; format: organism-based; conditions: in vivo, dose 15-30 mg/kg, time 7 day, read-out: Activity
# [24] = Inhibition of DENV RNA-dependent RNA polymerase activity; set-up: species or system Dengue virus
# [25] = Inhibition of DENV RNA polymerase; set-up: species or system Dengue virus
# [26] = test system: dengue virus type 3; assay: Antiviral activity against DENV-3 RNA-dependent RNA polymerase infected in African green monkey Vero cells assessed as reduction in viral replication incubated for 2 days by qRT-PCR analysis; format: functional, organism-based; conditions: 48 h
# [27] = test system: dengue virus type 4; assay: Antiviral activity against DENV-4 RNA-dependent RNA polymerase infected in African green monkey Vero cells assessed as reduction in viral replication incubated for 2 days by qRT-PCR analysis; format: functional, organism-based; conditions: 48 h
# Sequence of NS5 (A0A143MHK7 whole entry): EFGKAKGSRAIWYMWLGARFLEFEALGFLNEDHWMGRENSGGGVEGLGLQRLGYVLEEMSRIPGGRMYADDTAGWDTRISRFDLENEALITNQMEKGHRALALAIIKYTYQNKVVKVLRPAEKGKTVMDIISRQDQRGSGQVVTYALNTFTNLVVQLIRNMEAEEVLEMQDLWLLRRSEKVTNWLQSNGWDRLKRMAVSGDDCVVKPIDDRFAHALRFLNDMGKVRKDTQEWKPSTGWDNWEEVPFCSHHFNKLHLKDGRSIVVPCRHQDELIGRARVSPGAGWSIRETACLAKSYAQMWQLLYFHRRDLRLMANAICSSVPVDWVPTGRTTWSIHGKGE
compound,measurement,setting,value
Nc1ncnc2c1c(-c1cc3ccccc3o1)cn2[C@@H]1O[C@H](CO)[C@@H](O)[C@H]1O,IC50,[1],500 nM
same,EC50,[2],2200 nM
same,EC50,[3],13000 nM
IVERMECTIN,IC50,[4],1660 nM
same,IC50,[5],2320 nM
same,IC50,[6],2080 nM
same,IC50,[7],1900 nM
CN[C@@H]1CC[C@@H]2CN(c3c(F)c(N)c4c(=O)c(C(=O)O)cn(C5CC5)c4c3F)C[C@@H]21,EC50,[8],9200 nM
COc1nc(N)ncc1-c1cn(COCCO)cn1,IC50,[9],8400 nM
same,IC50,[10],1700 nM
same,EC50,[11],57 nM
CC(=O)Oc1ccc2oc(=O)sc2c1,EC50,[12],29500 nM
same,EC50,[13],29400 nM
same,EC50,[14],6000 nM
same,IC50,[15],287000 nM
OC[C@H]1O[C@@H](n2c3ccc(Cl)cc3c3c(-c4ccco4)ncnc32)[C@H](O)[C@@H]1O,CC50,[16],1560 nM
same,CC50,[17],170 nM
CNC1CN(c2c(F)c(N)c3c(=O)c(C(=O)O)cn(C4CC4)c3c2Cl)CC1OC (configuration not stated),EC50,[18],3900 nM
CN1CCN(c2ccc(C(=O)Nc3n[nH]c4ccc(Cc5cc(F)cc(F)c5)cc34)c(NC3CCOCC3)c2)CC1 [ENTRECTINIB],EC50,[19],2430 nM
same,Kd,[20],166000 nM
C[C@@]1(O)[C@H](O)[C@@H](CO)O[C@H]1n1ccc(N)nc1=O,EC50,[21],2800 nM
same,EC50,[22],2900 nM
same,survival at 168 h,[23],60%
same,IC50,[24],19300 nM
same,IC50,[25],11200 nM
same,EC50,[26],2400 nM
same,EC50,[27],2600 nM
